Measured values from US4025533A, “5-Bromo-5-nitro-2-alkylsubstituted-1,3-dioxane” (Eli Lilly and Company, priority 1976, dated 1977).
In brackets after ≈: the same amount, converted by molar mass.

Columns and labels:
[1] = chemical stability towards pH / alkali; type: physicochemical; settings: pH 5-9
Pseudomonas aeruginosa [2] = assay: conventional tube dilution test (Table I); type: cell-based; settings: 48 h, antibiotic Number 3 medium, two days at 37° C., read-out: Minimum Inhibitory Concentration
Protocol: (§1) The in vitro antimicrobial activities of Compounds A, B and C, 5-bromo-2-ethyl-5-nitro-1,3-dioxane (Compound D), 5-bromo-5-nitro-2-n-propyl-1,3-dioxane (Compound E), and 5-bromo-2-isopropyl-5-nitro-1,3-dioxane (Compound F) were determined concurrently against Pseudomonas aeruginosa, Staphylococcus aureus, Escherichia coli, and Streptococcus faecalis in a conventional tube dilution test. The medium used was antibiotic Number 3 [CFR 436.102(3)] and the concentration of organisms was 10^4 organisms per ml of medium, with each tube being inoculated with 0.1 ml of inoculum. The figures shown in Table I are the lowest concentrations in mcg of active compound/ml of medium where no growth occurred in the medium after two days' incubation at 37° C.

Streptococcus faecalis [3] = assay: conventional tube dilution test (Table I); type: cell-based; settings: Enterococcus faecalis, 48 h, antibiotic Number 3 medium, two days at 37° C., read-out: Minimum Inhibitory Concentration
Protocol: as §1

Staphylococcus aureus [4] = assay: conventional tube dilution test (Table I); type: cell-based; settings: 48 h, antibiotic Number 3 medium, two days at 37° C., read-out: Minimum Inhibitory Concentration
Protocol: as §1

Escherichia coli [5] = assay: conventional tube dilution test (Table I); type: cell-based; settings: 48 h, antibiotic Number 3 medium, two days at 37° C., read-out: Minimum Inhibitory Concentration
Protocol: as §1

Pseudomonas aeruginosa [6] = assay: agar plate system (Table II); type: cell-based; settings: antibiotic medium 1, 72 hours at 30° C., read-out: Minimum Inhibitory Concentration
Protocol: (§2) The antimicrobial activities of Compounds A, B, C, D, E and F were also determined in an agar plate system. The compounds were added to melted and cooled (50° C.) agar in twofold concentration increments from 50 mcg per ml of agar to 1.56 mcg per ml of agar. Antibiotic medium 1 [CFR 436.102(1)] was used for testing of Pseudomonas aeruginosa, Staphylococcus aureus, Escherichia coli, and Streptococcus faecalis, but antibiotic medium 22 [CFR 436.102(22)] was used for testing of Candida albicans and Aspergillus niger. Organism suspensions containing 10^6 organisms per ml were used as stock suspensions. Sterile cotton swabs were dipped in the suspensions and then streaked across the solidified agar. The figures shown in Table II were the lowest concentrations at which no growth occurred after 72 hours at 30° C. These values were interpreted as the minimum inhibitory concentration (MIC).

Streptococcus faecalis [7] = assay: agar plate system (Table II); type: cell-based; settings: Enterococcus faecalis, antibiotic medium 1, 72 hours at 30° C., read-out: Minimum Inhibitory Concentration
Protocol: as §2

Candida albicans [8] = assay: agar plate system (Table II); type: cell-based; settings: antibiotic medium 22, 72 hours at 30° C., read-out: Minimum Inhibitory Concentration
Protocol: as §2

Staphylococcus aureus [9] = assay: agar plate system (Table II); type: cell-based; settings: antibiotic medium 1, 72 hours at 30° C., read-out: Minimum Inhibitory Concentration
Protocol: as §2

Aspergillus niger [10] = assay: agar plate system (Table II); type: cell-based; settings: antibiotic medium 22, 72 hours at 30° C., read-out: Minimum Inhibitory Concentration
Protocol: as §2

Escherichia coli [11] = assay: agar plate system (Table II); type: cell-based; settings: antibiotic medium 1, 72 hours at 30° C., read-out: Minimum Inhibitory Concentration
Protocol: as §2

Pseudomonas aeruginosa [12] = assay: in vitro agar plate determination (Table VII); type: cell-based; settings: agar plates at 10, 25 and 50 mcg. per ml., 24 hours, read-out: Minimum Inhibitory Concentration
Protocol: (§3) The antimicrobial activities of […] (Compound G) were determined concurrently with 5-bromo-2-methyl-5-nitro-1,3-dioxane (Compound C) and 5-bromo-5-nitro-1,3-dioxane (Compound B) against the same six organisms shown in Table II. […] The tests were in vitro determinations utilizing agar plates containing the active compound at 10, 25 and 50 mcg. per ml. of agar. The organisms, at concentrations of 10^6 organisms per milliliter, were streaked on the solidified agar. The plates were incubated for 24 hours and the presence or absence of growth noted. The minimum inhibitory concentration (MIC) was determined as the lowest active compound concentration in the agar where no growth occurred.

Streptococcus faecalis [13] = assay: in vitro agar plate determination (Table VII); type: cell-based; settings: Enterococcus faecalis; agar plates at 10, 25 and 50 mcg. per ml., 24 hours; read-out: Minimum Inhibitory Concentration
Protocol: as §3

Candida albicans [14] = assay: in vitro agar plate determination (Table VII); type: cell-based; settings: agar plates at 10, 25 and 50 mcg. per ml., 24 hours, read-out: Minimum Inhibitory Concentration
Protocol: as §3

Staphylococcus aureus [15] = assay: in vitro agar plate determination (Table VII); type: cell-based; settings: agar plates at 10, 25 and 50 mcg. per ml., 24 hours, read-out: Minimum Inhibitory Concentration
Protocol: as §3

Aspergillus niger [16] = assay: in vitro agar plate determination (Table VII); type: cell-based; settings: agar plates at 10, 25 and 50 mcg. per ml., 24 hours, read-out: Minimum Inhibitory Concentration
Protocol: as §3

Escherichia coli [17] = assay: in vitro agar plate determination (Table VII); type: cell-based; settings: agar plates at 10, 25 and 50 mcg. per ml., 24 hours, read-out: Minimum Inhibitory Concentration
Protocol: as §3

chemical stability at pH [1]	MIC (Pseudomonas aeruginosa [2]) [mg/L]	MIC (Streptococcus faecalis [3]) [mg/L]	MIC (Staphylococcus aureus [4]) [mg/L]	MIC (Escherichia coli [5]) [mg/L]	MIC (Pseudomonas aeruginosa [6]) [mg/L]	MIC (Streptococcus faecalis [7]) [mg/L]	MIC (Candida albicans [8]) [mg/L]	MIC (Staphylococcus aureus [9]) [mg/L]	MIC (Aspergillus niger [10]) [mg/L]	MIC (Escherichia coli [11]) [mg/L]	MIC (Pseudomonas aeruginosa [12]) [mg/L]	MIC (Streptococcus faecalis [13]) [mg/L]	MIC (Candida albicans [14]) [mg/L]	MIC (Staphylococcus aureus [15]) [mg/L]	MIC (Aspergillus niger [16]) [mg/L]	MIC (Escherichia coli [17]) [mg/L]	SMILES
chemically stable at pH's from 5-9	50 (≈ 208 µM)	25 (≈ 104 µM)	25 (≈ 104 µM)	25 (≈ 104 µM)	25 (≈ 104 µM)	12.5 (≈ 52.1 µM)	6.25 (≈ 26 µM)	12.5 (≈ 52.1 µM)	12.5 (≈ 52.1 µM)	12.5 (≈ 52.1 µM)	–	–	–	–	–	–	CCC1OCC(Br)([N+](=O)[O-])CO1 (stereo not shown) [Compound D, 5-bromo-2-ethyl-5-nitro-1,3-dioxane]
–	50 (≈ 197 µM)	25 (≈ 98.4 µM)	50 (≈ 197 µM)	25 (≈ 98.4 µM)	25 (≈ 98.4 µM)	12.5 (≈ 49.2 µM)	3.1 (≈ 12.2 µM)	12.5 (≈ 49.2 µM)	6.25 (≈ 24.6 µM)	12.5 (≈ 49.2 µM)	–	–	–	–	–	–	CCCC1OCC(Br)([N+](=O)[O-])CO1 (stereo not shown) [Compound E, 5-bromo-5-nitro-2-n-propyl-1,3-dioxane]
–	50 (≈ 197 µM)	25 (≈ 98.4 µM)	25 (≈ 98.4 µM)	25 (≈ 98.4 µM)	25 (≈ 98.4 µM)	25 (≈ 98.4 µM)	6.25 (≈ 24.6 µM)	12.5 (≈ 49.2 µM)	12.5 (≈ 49.2 µM)	12.5 (≈ 49.2 µM)	–	–	–	–	–	–	CC(C)C1OCC(Br)([N+](=O)[O-])CO1 (stereo not shown) [Compound F, 5-bromo-2-isopropyl-5-nitro-1,3-dioxane]
–	–	–	–	–	–	–	–	–	–	–	50 (≈ 208 µM)	25 (≈ 104 µM)	25 (≈ 104 µM)	25 (≈ 104 µM)	50 (≈ 208 µM)	25 (≈ 104 µM)	CC1(C)OCC(Br)([N+](=O)[O-])CO1 [Compound G, 5-bromo-2,2-dimethyl-5-nitro-1,3-dioxane]
